Measurements: patent publication US9072691B2, “Nutritional supplement for disinhibiting therapy of psychiatric patients” (priority 2012, dated 2015)

Assays:
[1] = cited from earlier work
[2] = Individual components administered separately from the other components; format: in vivo, human; details: administered separately from the other components of the invention
Text: Thus, the invention is named “Formula of activity”. The invention offers methods of treating patients who refuse food and can die as a result. […] It is possible that this new effect is produced by a new substance that is formed as a result of the interaction of the components of the invention with each other or with other naturally occurring substances in the body. The components may exert their effect by through the reticular formation in the brain, which is the regulating center of different brain functions. The reticular formation coordinates the interactions between all structures of the brain. It analyzes and corrects the functions of the brain structures and ensures their proper hierarchical dependencies, as well as the readiness of the central nervous system to perform its functions.

[3] = Effect of composition on selected patients and disorders (case reports); format: in vivo, human
Text: The following are several of many patients who were successfully treated by the invention.

CCC1(CCC(C)C)C(=O)N=C([O-])NC1=O.[Na+] (stereo not shown) [Barbamyl]
Dependency on repeated injections [1]: lead to psychological and physiological dependency on this substance

O=S(=O)([O-])[O-].[Mg+2] [Magnesium sulfate, magnesium sulfate]
Stimulating or disinhibiting effect / effect on appetite when administered alone [2]: does not lead to a desired stimulating or disinhibiting effect

CN1CCN(CCCN2c3ccccc3Sc3ccc(C(F)(F)F)cc32)CC1 [Stelazine]
Clinical outcome ([3]; Patient N, postpartum psychosis, 5 mg once per day first week, then 1 mg two times a day): improved regarding their condition and delusional ideas; however they remained apathetic, fatigued and indifferent

O=S(=O)([O-])CC(S)CS.[Na+] (stereo not shown) [Unithiol]
Stimulating or disinhibiting effect / effect on appetite when administered alone [2]: does not lead to a desired stimulating or disinhibiting effect

CN(C)CCCN1c2ccccc2Sc2ccc(Cl)cc21 [aminazine]
Effect after administration ([3]; Patient B, paranoid schizophrenia, after disinhibition, 50 mg intravenously): the patient fell asleep

CN1C(=O)CN=C(c2ccccc2)c2cc(Cl)ccc21 [valium]
Sleep ([3]; Patient S, closed head trauma, before the course of the invention, injection): they would fall asleep only after injection of valium

calcium pantothenate
Stimulating or disinhibiting effect / effect on appetite when administered alone [2]: does not lead to a desired stimulating or disinhibiting effect
